“Also recorded” adds a separate entry of the source.
Experiments:
Assay type in all cases: in vivo
[1] = test system: heart from C57/BL6 mice transplanted into Balb/c recipient mice (total MHC mismatch); test: Transplant rejection in total MHC mismatch heart transplant mouse model (Example 3); conditions: Compound 1 alone 75 mg/kg/day s.c. for fourteen days; p<0.001; untreated controls rejected after ten days
Description: The ability of Compound 1 to inhibit transplant rejection in a mouse model was tested. Specifically, the heart from C57/BL6 mice was transplanted into Balb/c recipient mice (total MHC mismatch) using standard protocol described in Hancock, W. W., et al. “Costimulatory function and expression of CD40 ligand, CD80 and CD86 in vascularized murine cardiac allograft rejection” Proc. Natl. Acad. Sci. USA 93: 13967 (1996). Following surgery, the mice were divided into the following treatment groups: • Group I is a control group that was untreated. • Group II was treated with Compound 1 at a dose of 75 mg/kg/day subcutaneously for fourteen days following surgery. Control mice receiving no treatment reproducibly experienced rejection of their transplanted hearts after only ten days.

[2] = test system: fully mismatched cardiac allografts (C57/BL 6 donor with Balb/C recipient); test: Heterotypic allogeneic heart transplant model with CD154 blockade, second mouse model (Example 2)
Description: The ability of compound 1 to inhibit chronic transplant rejection was tested in a mouse heterotypic allogeneic heart transplant model in which acute allograft rejection was prevented with CD154 blockade as previously described (Hancock, W. W. et al. 1996. Proc. Natl. Acad. Sci. USA. 93:13967; and Yuan et al., Transplantation 73:1736). Briefly, this model consists of fully mismatched cardiac allografts (C57/BL 6 donor with Balb/C recipient). […] A third group in which acute rejection is blocked by administering a single 250 μg dose of anti-CD154 (anti-CD40 ligand) monoclonal antibody was established, and acute rejection (as evidenced by cessation of contraction of the transplanted heart) occurred in approximately 50% of recipient animals. […] These include profound athlerosclerotic blockages of heart arteries, cellular inflammation (immune cell infiltration into the heart muscle itself), and fibrotic scarring of the cardiac parenchyma. The hearts were subjected to a histopathological score. The histopathological scores (range 0-5 indicating severity of chronic rejection accelerated atherosclerosis, with 0 being normal blood vessel and 5 being fully occluded) are shown in FIG. 2. Thus the addition of anti-CD154 to this model offers certain similarities to the human transplant clinical condition in that acute rejection is managed (in this case with the anti-CD154 monoclonal antibody) so that chronic rejection pathology can be observed.

[3] = test system: hearts from donor B6.C-H2^bm12 mice transplanted into C57/BL6 recipient mice (MHC II mismatch); test: Chronic rejection of MHC class II mismatched heart transplants, first mouse model (Example 1)
Description: The ability of Compound 1 to inhibit chronic transplant rejection in a mouse model was tested. Specifically, hearts from donor B6.C-H2^bm12 mice were transplanted into C57/BL6 recipient mice (MHC II mismatch) using standard protocol described in Hancock, W. W., et al. Proc. Natl. Acad. Sci. USA 93: 13967 (1996) and Yuan et al., Transplantation 73:1736, the entire teachings of which are incorporated herein by reference. Following surgery, the mice were divided into the following treatment groups with seven mice each:
Group I was a control group that was untreated.
Group II was treated with Compound 1 at a dose of 75 mg/kg/day subcutaneously for fourteen days following surgery.
At eight weeks following transplant surgery, the mice were sacrificed and evaluated for chronic rejection accelerated atherosclerosis. Briefly, transplanted hearts were fixed in formalin, embedded in paraffin and sectioned coronally. The sections were scanned for arterial blood vessels, which were subjected to a histopathological score. The histopathological scores (range 0-5 indicating severity of chronic rejection accelerated atherosclerosis, with 0 being normal blood vessel and 5 being fully occluded) are shown in FIG. 1. […] It is likely that increased bioavailability resulting from improved compound formulation will result in more complete protection from chronic rejection vasculopathy.

N#Cc1cccc(C(C(=O)NCC(c2ccccc2)c2ccccc2)N(CCc2c[nH]cn2)C(=O)c2ccccc2C(=O)c2ccccc2)c1 (centres unmarked) [Compound 1]
delay in the onset of rejection [1]: two to three | chronic rejection of transplanted hearts ([2]; 75 mg/kg/day Compound 1 for two weeks combined with single 250 μg anti-CD154 monoclonal antibody, 120 days post surgery): inhibited | indicators of chronic graft rejection (atherosclerotic blockages, cellular inflammation, fibrotic scarring), histological evaluation ([2]; Compound 1 75 mg/kg daily s.c. for 14 days plus single dose anti-CD154, compared with anti-CD154 alone, more than 100 days post surgery): dramatic inhibition of all indicators of chronic rejection | transplant recipient animals with lack of acute rejection ([2]; Compound 1 75 mg/kg daily s.c. for 14 days plus single dose anti-CD154, for more than 100 days post surgery): 100% | extension in transplant survival ([2]; Compound 1 alone, untreated recipients rejected within 10 days): about 20 days | animals free of vasculopathy ([3]; 75 mg/kg/day s.c. for fourteen days, eight weeks after transplant, seven mice per group): 4/7 | treated animals showing full involvement (vasculopathy) ([3]; 75 mg/kg/day s.c. for fourteen days, eight weeks after transplant, seven mice per group, possibly diminished exposure): three | histological evidence of chronic rejection (histopathological score 0-5, chronic rejection accelerated atherosclerosis) ([3]; 75 mg/kg/day subcutaneously for fourteen days following surgery, evaluated eight weeks after transplant, averaged for all animals, vs untreated control): inhibited; also recorded: significantly (p=0.0002) prevented histological evidence of chronic rejection

Source: patent US7687530B2, “Inhibition of chronic tissue transplant rejection” (Genzyme Corporation, priority 2002, dated 2010)
